We go through eleven compounds from patent publication US20070244154A1, “Substituted Tricyclic Benzimidazoles” (Altana Pharma AG, priority 2004, published 2007).

Series [1] concerns pentagastrin-stimulated acid secretion of the perfused rat stomach. In words: Secretion-inhibiting action on the perfused rat stomach. The conditions noted are these: anesthetized female CD rat, dose 3 μmol/kg i.d. (intraduodenal). An excerpt:
Testing of the Secretion-Inhibiting Action on the Perfused Rat Stomach
In Table A which follows, the influence of the compounds of the formula 1 according to the invention on the pentagastrin-stimulated acid secretion of the perfused rat stomach after intraduodenal admnistation in vivo is shown.
The abdomen of anesthetized rats (CD rat, female, 200-250 g; 1.5 g/kg i.m. urethane) was opened after tracheotomy by a median upper abdominal incision and a PVC catheter was fixed transorally in the esophagus and another via the pylorus such that the ends of the tubes just projected into the gastric lumen. The catheter leading from the pylorus led outward into the right abdominal wall through a side opening.
After thorough rinsing (about 50-100 ml), warm (37° C.) physiological NaCl solution was continuously passed through the stomach (0.5 ml/min, pH 6.8-6.9; Braun-Unita I). The pH (pH meter 632, glass electrode EA 147; φ=5 mm, Metrohm) and, by titration with a freshly prepared 0.01N NaOH solution to pH 7 (Dosimat 665 Metrohm), the secreted HCl were determined in the effluent in each case collected at an internal of 15 minutes.
The gastric secretion was stimulated by continuous infusion of […] (=1.65 ml/h) of i.v. pentagastrin (left femoral vein) about 30 min after the end of the operation (i.e. after determination of 2 preliminary fractions). The substances to be tested were administered intraduodenally in a 2.5 ml/kg liquid volume 60 min after the start of the continuous pentagastrin infusion. The body temperature of the animals was kept at a constant 37.8-38° C. by infrared irradiation and heat pads (automatic, stepless control by means of a rectal temperature sensor).

The term inhibition in vivo denotes how much of the control response was suppressed. In general, melting point refers to the temperature, or range, at which the solid turns liquid.

In series [1], `CNC(=O)c1cc2c(nc(C)n2C)c2c1[C@H](O)[C@H](O)[C@@H](c1ccccc1)N2` [Example 1, (6S,7R,8R)-[6,7,8,9-Tetrahydro-6,7-dihydroxy-2,3-dimethyl-8-phenyl-3H-imidazo[4,5-h]quinoline-5-yl]-carboxylic acid methylamide] registered an inhibition in vivo at 3 µmol/kg above 15%. Still for that read-out and setting: with `CNC(=O)c1cc2c(nc(C)n2C)c2c1[C@@H](O)[C@H](O)[C@@H](c1ccccc1)N2` [Example 2, (6R,7R,8R)-[6,7,8,9-Tetrahydro-6,7-dihydroxy-2,3-dimethyl-8-phenyl-3H-imidazo[4,5-h]quinoline-5-yl]-carboxylic acid methylamide] the figure was above 15%. Same read-out and setting: with `CCCCO[C@H]1c2c(C(=O)NC)cc3c(nc(C)n3C)c2N[C@H](c2ccccc2)[C@H]1O` [Example 3, (6S,7R,8R)-[6-n-butyloxy-6,7,8,9-tetrahydro-7-hydroxy-2,3-dimethyl-8-phenyl-3H-imidazo[4,5-h]quinoline-5-yl]-carboxylic acid methylamide] the figure was above 15%; with `CCCCO[C@@H]1c2c(C(=O)NC)cc3c(nc(C)n3C)c2N[C@H](c2ccccc2)[C@H]1O` [Example 4, (6R,7R,8R)-[6-n-butyloxy-6,7,8,9-tetrahydro-7-hydroxy-2,3-dimethyl-8-phenyl-3H-imidazo[4,5-h]quinoline-5-yl]-carboxylic acid methylamide], above 15%.

For `C#CCO[C@H]1c2c(C(=O)NC)cc3c(nc(C)n3C)c2N[C@H](c2ccccc2)[C@H]1O` [Example 7, (6S,7R,8R)-[6,7,8,9-Tetrahydro-7-hydroxy-2,3-dimethyl-8-phenyl-6-propargyloxy-3H-imidazo[4,5-h]quinoline-5-yl]-carboxylic acid methylamide], in series [1], the inhibition in vivo at 3 µmol/kg is above 15%.

With `CNC(=O)c1cc2c(nc(C)n2C)c2c1[C@@H](CC(F)F)[C@@H](O)[C@@H](c1ccccc1)N2` [Example 10, (6R,7R,8R)-[7-Hydroxy-2,3-dimethyl-8-phenyl-6-(2,2-difluoroethyl)-6,7,8,9-tetrahydro-3H-imidazo[4,5-h]quinoline-5-yl]-carboxylic acid methylamide], the inhibition in vivo at 3 µmol/kg in series [1] is above 15%. `CNC(=O)c1cc2c(nc(C)n2C)c2c1C[C@@H](O)[C@@H](c1ccccc1)N2` [Example 11, (7R,8R)-[7-Hydroxy-2,3-dimethyl-8-phenyl-6,7,8,9-tetrahydro-3H-imidazo[4,5-h]quinoline-5-yl]-carboxylic acid methylamide]: the melting point lay within 265 to 268 °C. The inhibition in vivo at 3 µmol/kg in series [1] was above 15%. As to `Cc1nc2c3c(c(C(=O)N(C)C)cc2n1C)C(O)[C@H](O)[C@@H](c1ccccc1)N3` (stereo partly drawn) [Example 12, (7R,8R)-[6,7-Dihydroxy-2,3-dimethyl-8-phenyl-6,7,8,9-tetrahydro-3H-imidazo[4,5-h]quinoline-5-yl]carboxylic acid dimethylamide], the inhibition in vivo at 3 µmol/kg in series [1] is above 15%. The same measure, in the same setting: next, `CCCCO[C@H]1c2c(C(=O)N(C)C)cc3c(nc(C)n3C)c2N[C@H](c2ccccc2)[C@H]1O` [Example 13, (6S,7R,8R)-[6-n-Butyloxy-7-hydroxy-2,3-dimethyl-8-phenyl-6,7,8,9-tetrahydro-3H-imidazo[4,5-h]quinoline-5-yl]-carboxylic acid dimethylamide]: above 15%; `CCCCO[C@@H]1c2c(C(=O)N(C)C)cc3c(nc(C)n3C)c2N[C@H](c2ccccc2)[C@H]1O` [Example 14, (6R,7R,8R)-[6-n-Butyloxy-7-hydroxy-2,3-dimethyl-8-phenyl-6,7,8,9-tetrahydro-3H-imidazo[4,5-h]quinoline-5-yl]-carboxylic acid dimethylamide]: above 15%; `Cc1nc2c3c(c(C(=O)N(C)C)cc2n1C)C[C@@H](O)[C@@H](c1ccccc1)N3` [Example 15, (7R,8R)-[7-Hydroxy-2,3-dimethyl-8-phenyl-6,7,8,9-tetrahydro-3H-imidazo[4,5-h]quinoline-5-yl]-carboxylic acid dimethylamide]: above 15%.
